1 molecule from US20240174669A1, “CRYSTALLINE FORMS OF A PARP1 INHIBITOR” (XinThera, Inc., priority 2022, published 2024) can be followed below.

The nature of this data set: Solid-state stability. Type of data set: physicochemical. Here is the method: Solid-state stability of free base Form II (Lot#1) was conducted at 60° C. (capped) and 40° C./75% RH (open) for 7 days. The stability sample was dissolved in diluent to prepare solution at ˜0.5 mg/mL for HPLC purity analysis. Solid samples were analyzed by XRPD to check the crystalline form. […] (capped) and 40° C./75% RH (open) after 7 days.

The structures appear in SMILES notation.

For the molecule `CNC(=O)c1ccc(N2CCN(Cc3cnc4cc(C5CC5)c(=O)[nH]c4c3)CC2)cn1` [Freebase Form II, 5-(4-((7-cyclopropyl-6-oxo-5,6-dihydro-1,5-naphthyridin-3-yl)methyl)piperazin-1-yl)-N-methylpicolinamide], under “40° C./75% RH (open), 7 days”, the “Purity (area %) @7 D 40° C./75% RH” value was 99.26 area % and the “XRPD @7 D 40° C./75% RH” value is “Unchanged”. The solid-state stability result (60° C. (capped) and 40° C./75% RH (open), after 7 days) is “physically and chemically stable”. For the same molecule, where the note is “60° C. (capped), 7 days”, the “Purity (area %) @7 D 60° C.” value worked out at 99.25 area % and the “XRPD @7 D 60° C.” value was “Unchanged”. In addition, the “Purity (area %) Initial” value (initial) is 99.26 area %.
